In brackets after ≈: the same amount, converted by molar mass. Where two headings read alike, the source gives them in different places.
Assays:
CHI Log D procedure = type: physicochemical; settings: pH 7.4, CHI Log D
[1] = biological target: T1, full-length beta-Catenin (Uniprot ID P35222) (Homo sapiens, UniProt P35222); experiment: Fluorescence polarization IC50 (beta-catenin / 5FAM-TCF4 10-53 competition); type: binding; settings: read-out: beta-Catenin FP IC50
T1 construct: 10 nM full-length beta-Catenin (Uniprot ID P35222)
T1 sequence (P35222 1-781): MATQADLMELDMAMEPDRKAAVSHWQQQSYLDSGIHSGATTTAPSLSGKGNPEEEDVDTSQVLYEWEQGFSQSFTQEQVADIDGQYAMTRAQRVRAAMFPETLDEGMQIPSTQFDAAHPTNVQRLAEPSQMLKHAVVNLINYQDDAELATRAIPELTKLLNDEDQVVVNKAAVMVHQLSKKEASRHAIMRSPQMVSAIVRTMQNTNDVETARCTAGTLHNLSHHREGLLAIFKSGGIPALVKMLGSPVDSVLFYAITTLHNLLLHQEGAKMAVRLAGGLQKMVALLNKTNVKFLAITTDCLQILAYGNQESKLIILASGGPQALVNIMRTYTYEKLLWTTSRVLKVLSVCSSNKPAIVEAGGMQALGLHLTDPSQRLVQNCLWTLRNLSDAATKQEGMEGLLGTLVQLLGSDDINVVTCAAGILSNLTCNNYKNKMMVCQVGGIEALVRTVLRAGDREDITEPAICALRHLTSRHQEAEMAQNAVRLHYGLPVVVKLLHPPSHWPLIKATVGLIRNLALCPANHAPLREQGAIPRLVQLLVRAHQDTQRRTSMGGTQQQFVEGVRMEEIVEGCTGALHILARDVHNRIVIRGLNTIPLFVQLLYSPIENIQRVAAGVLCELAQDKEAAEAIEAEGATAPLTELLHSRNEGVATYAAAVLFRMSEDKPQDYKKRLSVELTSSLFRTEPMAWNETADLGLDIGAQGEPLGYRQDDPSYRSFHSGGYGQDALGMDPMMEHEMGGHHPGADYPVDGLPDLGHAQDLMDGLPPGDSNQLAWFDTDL

Solubility in PBS = type: physicochemical
Procedure, shortened: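 Solubility is derived from HPLC peak areas: the ratio of the PBS supernatant peak to a 50 μM DMSO peptide peak, times 50 uM.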

[2] = biological target: T2, beta-catenin/TCF4 engagement (Homo sapiens, UniProt P35222); experiment: Nano-BRET target engagement assay (B-cat-Halo & TCF4-Luc in HEK293 cells); type: cell-based; settings: absolute IC50; read-out: NanoBRET Abs IC50
T2 construct: expressed in transfected cells; host or cells: HEK293
T2 sequence (P35222 1-781): T1 sequence (P35222 1-781)

[3] = test system: TCF/LEF luciferase Reporter in DLD1 cells; experiment: TCF reporter assay (DLD1 TCF/LEF luciferase reporter, Bright-Glo); type: cell-based
Procedure, shortened: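 DLD1 cells stably carrying a TCF/LEF luciferase reporter were plated at 5000 cells/well in RPMI + 4% FBS and treated overnight with a 1:2 compound dilution series. Bright-Glo luminescence read on day 3; viability by CellTiter-Glo. Absolute IC50 determined.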

[4] = absolute IC50, read-out: DLD1 reporter assay Abs IC50
[5] = read-out: DLD1 4% Abs IC50, DLD1 4%

SMILES	chromatographic logD (CHI Log D procedure)	IC50 [1]	Solubility (Solubility in PBS; Solubility (uM))	IC50 [2]	IC50 [3, 4]	IC50 [3, 5]	Solubility (Solubility in PBS)
CC(=O)N1CCC[C@]12CC=CCCCC1(CCCC=CCCCOC(=O)N3CC[C@@](C(=O)N[C@@H](Cc4ccccc4Cl)C(=O)N[C@@H](Cc4csc5ccccc45)C(=O)N[C@@H](CO)C(N)=O)(C3)NC(=O)[C@H]([C@@H](C)O)NC(=O)[C@H](Cc3ccccc3)NC(=O)[C@H](C)NC(=O)[C@H](C)NC(=O)[C@H](CC(N)=O)NC(=O)[C@H](CC(=O)O)NC1=O)NC(=O)[C@H](CC(C)(C)C)NC(=O)[C@H](CC(=O)O)NC2=O (stereo partly drawn) [I-1016, Ac-PL3-Asp-Npg-B5-Asp-Asn-Ala-Ala-Phe-Thr-PyrS2-2ClF-BztA-Ser-NH2]	2.38	0.008 µM		21.4 µM	21.4 µM		10 µM (≈ 18.9 µg/mL)
CC(=O)N1CCC[C@]12CC=CCCCC1(CCCC=CCCCOC(=O)N3CC[C@@](C(=O)N[C@@H](Cc4ccccc4Cl)C(=O)N[C@@H](Cc4csc5ccccc45)C(=O)N[C@@H](CO)C(N)=O)(C3)NC(=O)[C@H](CO)NC(=O)[C@H](Cc3ccccc3)NC(=O)[C@H](C)NC(=O)[C@H](C)NC(=O)[C@H](CC(=O)O)NC(=O)[C@H](CC(=O)O)NC1=O)NC(=O)[C@H](CC(C)(C)C)NC(=O)[C@H](CC(=O)O)NC2=O (stereo partly drawn) [I-1019, Ac-PL3-Asp-Npg-B5-Asp-Asp-Ala-Ala-Phe-Ser-PyrS2-2C1F-BztA-Ser-NH2]	2.22	0.005 µM	48 µM (≈ 90.2 µg/mL)	9.6 µM	8.3 µM	7.8 µM	
CC(=O)N1CCC[C@]12CC=CCCCC1(CCCC=CCCCOC(=O)N3CC[C@@](C(=O)N[C@@H](Cc4ccccc4Cl)C(=O)N[C@@H](Cc4csc5ccccc45)C(=O)N[C@@H](C(N)=O)[C@H](C)O)(C3)NC(=O)[C@H](CC(N)=O)NC(=O)[C@H](Cc3ccccc3)NC(=O)[C@H](C)NC(=O)[C@H](C)NC(=O)[C@H](CC(=O)O)NC(=O)[C@H](CC(=O)O)NC1=O)NC(=O)[C@H](CC(C)(C)C)NC(=O)[C@H](CC(=O)O)NC2=O (stereo partly drawn) [I-1028, Ac-PL3-Asp-Npg-B5-Asp-Asp-Ala-Ala-Phe-Asn-PyrS2-2C1F-BztA-dThr-NH2]	2.4	0.013 µM		8.7 µM	6.4 µM	3.6 µM	10 µM (≈ 19.2 µg/mL)

Further compounds by falling IC50 [1], results first:

chromatographic logD (CHI Log D procedure)	IC50 [1]	Solubility (Solubility in PBS; Solubility (uM))	IC50 [2]	IC50 [3, 4]	IC50 [3, 5]	Solubility (Solubility in PBS)	SMILES
2.27	0.005 µM	47 µM (≈ 88.9 µg/mL)	8.9 µM	9 µM	5.7 µM		CC(=O)N1CCC[C@]12CC=CCCCC1(CCCC=CCCCOC(=O)N3CC[C@@](C(=O)N[C@@H](Cc4ccccc4Cl)C(=O)N[C@@H](Cc4csc5ccccc45)C(=O)N[C@@H](CO)C(N)=O)(C3)NC(=O)[C@H]([C@@H](C)O)NC(=O)[C@H](Cc3ccccc3)NC(=O)[C@H](C)NC(=O)[C@H](C)NC(=O)[C@H](CC(=O)O)NC(=O)[C@H](CC(=O)O)NC1=O)NC(=O)[C@H](CC(C)(C)C)NC(=O)[C@H](CC(=O)O)NC2=O (stereo partly drawn) [I-1015, Ac-PL3-Asp-Npg-B5-Asp-Asp-Ala-Ala-Phe-Thr-PyrS2-2C1F-BztA-Ser-NH2]
2.11	0.005 µM	48 µM (≈ 92.1 µg/mL)	8.9 µM	> 20 µM			CC(=O)N1CCC[C@]12CC=CCCCC1(CCCC=CCCCOC(=O)N3CC[C@@](C(=O)N[C@@H](Cc4ccccc4Cl)C(=O)N[C@@H](Cc4csc5ccccc45)C(=O)N[C@@H](CCC(N)=O)C(N)=O)(C3)NC(=O)[C@H](CO)NC(=O)[C@H](Cc3ccccc3)NC(=O)[C@H](C)NC(=O)[C@H](C)NC(=O)[C@H](CC(=O)O)NC(=O)[C@H](CC(=O)O)NC1=O)NC(=O)[C@H](CC(C)(C)C)NC(=O)[C@H](CC(=O)O)NC2=O (stereo partly drawn) [I-1017, Ac-PL3-Asp-Npg-B5-Asp-Asp-Ala-Ala-Phe-Ser-PyrS2-2C1F-BztA-Gln-NH2]

— US20240116985A1, “STAPLED PEPTIDES AND METHODS THEREOF” (priority 2020, published 2024)
